Series [1] is described as follows: toxicity (LD50), p.o. in the mouse. The following applies: in vivo, po. As to the method: The MAO inhibiting activity of the compounds in accordance with the invention can be determined using standard methods. Thus, the substances to be tested were administered p.o. to rats. Two hours thereafter the animals were killed and the MAO inhibiting activity was measured in homogenates of the brain according to the method described in Biochem. Pharmacol. 12 (1963) 1439-1441, but using phenethylamine (2.10^-5 mol.1^-1) in place of tyramine as the substrate. The thus-determined activity of some compounds in accordance with the invention as well as their toxicity are evident from the following ED50 values (μmol/kg, p.o. in the rat) and LD50 values (mg/kg, p.o. in the mouse), respectively: […]

Another series deals with T1, monoamine oxidase (MAO) (Rattus norvegicus, UniProt P19643).
T1 construct: from tissue; host or cells: rat brain homogenate (ex vivo, two hours after p.o. dosing)
T1 sequence (P19643 1-520): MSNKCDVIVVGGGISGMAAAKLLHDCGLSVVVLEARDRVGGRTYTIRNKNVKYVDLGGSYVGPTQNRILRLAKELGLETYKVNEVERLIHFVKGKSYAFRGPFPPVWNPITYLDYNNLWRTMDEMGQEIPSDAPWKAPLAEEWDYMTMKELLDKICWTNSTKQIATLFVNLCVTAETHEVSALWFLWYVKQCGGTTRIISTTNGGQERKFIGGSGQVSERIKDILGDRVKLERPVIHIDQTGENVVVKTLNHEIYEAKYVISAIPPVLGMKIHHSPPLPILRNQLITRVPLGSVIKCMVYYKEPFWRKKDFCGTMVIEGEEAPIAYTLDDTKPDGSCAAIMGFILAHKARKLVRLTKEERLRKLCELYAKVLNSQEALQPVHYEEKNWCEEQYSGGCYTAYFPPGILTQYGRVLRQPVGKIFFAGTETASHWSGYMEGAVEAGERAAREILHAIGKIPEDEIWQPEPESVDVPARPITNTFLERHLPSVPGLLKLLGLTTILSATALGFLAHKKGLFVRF
The experiment in a line: MAO inhibiting activity measured in homogenates of the brain two hours after p.o. administration to rats (phenethylamine as substrate). In kind it is in vivo. To be noted: po, read-out: ED50 (MAO inhibiting activity). As to the method:
The MAO inhibiting activity of the compounds in accordance with the invention can be determined using standard methods. Thus, the substances to be tested were administered p.o. to rats.

Where a name gives a salt, the structure may show the parent alone. Read-outs that look alike come from different tables or passages of the source.

The term LD50 denotes the dose at which mortality reaches 50%. Low values mean greater toxicity, high ones lower toxicity. For orientation: ED50 means the dose at which the effect has come halfway, by size or by number of responders. Regarding `Cl.Cl.NCCNC(=O)c1ccccn1` [N-(2-aminoethyl)-pyridine-2-carboxamide dihydrochloride], the LD50 in series [1] was over 4000 mg/kg. Moreover, on monoamine oxidase (MAO) (rat, 2 h), the ED50 amounted to 1.7 µmol/kg.

In series [1], `Cl.NCCNC(=O)c1cc(Br)ccn1` [N-(2-aminoethyl)-4-bromopyridine-2-carboxamide hydrochloride] returned an LD50 of 1000 to 2000 mg/kg. The ED50 at monoamine oxidase (MAO) (rat, 2 h) came out at 4 µmol/kg. In turn, `Cl.NCCNC(=O)c1ccc(Cl)cn1` [N-(2-aminoethyl)-5-chloropyridine-2-carboxamide hydrochloride] came in with an LD50 in series [1] of 1000 to 2000 mg/kg. In series [1], `Cl.NCCNC(=O)c1cccc(Br)n1` [N-(2-aminoethyl)-6-bromopyridine-2-carboxamide hydrochloride] returned an LD50 of 1000 to 2000 mg/kg. In addition, at monoamine oxidase (MAO) (rat, 2 h), the ED50 was determined as 8 µmol/kg. On the same counts, the results for `Cl.NCCNC(=O)c1csc(Cl)n1` [N-(2-aminoethyl)-2-chlorothiazole-4-carboxamide hydrochloride] are 2500 to 5000 mg/kg and 6 µmol/kg. `Cl.NCCNC(=O)c1cc(Cl)ccn1` [N-(2-aminoethyl)-4-chloropyridine-2-carboxamide hydrochloride]: in series [1], the LD50 lay in the range of 1250 to 2500 mg/kg. Also, the ED50 at monoamine oxidase (MAO) (rat, 2 h) turned out to be 5 µmol/kg. The like results for `Cc1cc(C(=O)NCCN)no1.Cl` [N-(2-aminoethyl)-5-methylisoxazole-3-carboxamide hydrochloride] were, in that order, over 4000 mg/kg and 20 µmol/kg. The like results for `Cl.Cl.NCCNC(=O)c1ncccc1N` [N-(2-aminoethyl)-3-aminopyridine-2-carboxamide dihydrochloride] were, in that order, 2500 to 5000 mg/kg and 5 µmol/kg. Turning to `Cl.NCCNC(=O)c1ncsc1Br` [N-(2-aminoethyl)-5-bromothiazole-4-carboxamide hydrochloride], the LD50 in series [1] was 1250 to 2500 mg/kg. Moreover, on monoamine oxidase (MAO) (rat, 2 h), the ED50 amounted to 10 µmol/kg. For the compound `NCCNC(=O)c1cccc(Cl)n1` [N-(2-aminoethy)-6-chloropyridine-2-carboxamide hydrochloride], in series [1], the LD50 fell in the range of 625 to 1250 mg/kg. In addition, the ED50 on monoamine oxidase (MAO) (p.o. in the rat, brain homogenates 2 hours after administration, substrate phenethylamine 2.10^-5 mol.1^-1) was determined as 10 µmol/kg.

The values are drawn from patent US4764522A, “Ethylenediamine monoamides” (Hoffmann-La Roche Inc., priority 1984, dated 1988).
